# Key:
# [1] = test system: Panc-1 pancreatic cancer cell line; experiment: CellTiter Glo viability assay, Panc-1; type: cell-based
# Procedure: (§1) For CellTiter Glo viability assays, 10,000 cells per well were plated on Day 1 and were allowed to adhere to the plate surface for 24 hours. Optimized concentration ranges of prodrugs were determined and made via serial dilution. […] Cells were incubated with compound for 48 hours and viability was assessed on Day 4 using the CellTiter Glo Viability assay which measures metabolically active cells by quantifying the amount of ATP present.
# (§2) Panc-1 cells were obtained from Tony Kouzarides' lab in the Gurdon Institute at the University of Cambridge and put into culture at passage 10 containing DMEM media (Gibco) supplemented with 1% Pen-Strep antibiotic (Gibco), 1% L-glutamine, and 10% fetal bovine serum (FBS, sterile-filtered). Aspc-1 cells were bought commercially from the American Type Culture Collection (ATCC) and put into culture containing RPMI 1640 media (Gibco) supplemented with 1% Pen-Strep antibiotic (Gibco), 1% L-glutamine, and 20% fetal bovine serum (FBS, sterile-filtered). All cell lines were started at passage 10 and passaged every 3 days by centrifuging at 1000 rpm for 4 minutes.
# SkBr-3 = experiment: Toxicity with/without β-glucuronidase, SkBr-3; type: cell-based
# Procedure: (§3) Assays assessing cytotoxicity of β-lapachone and derivatives were performed by CellTiter-Blue assay (Promega) according to the manufacturer's instructions. Briefly, adherent cancer-cell lines were plated at 20,000 cells/well in 96 well plates or suspension cell lines were plated at a concentration of 2×10^5 cells/mL in 24 well plates. Compound stocks in media were made by dilution of DMSO stocks containing the compound of interest to obtain a final in-plate DMSO concentration of only 0.1%. Incubation was performed for 48 h. Following incubation, media was replaced with media containing CellTiter-Blue (Promega) in 1:10 dilution and the plates were incubated for 1.5-4 h. The fluorescence of the plates was recorded (excitation 555 nm, emission 585 nm, MiniMax i3x Reader, Molecular Devices).
# (§4) Cell viability was calculated by division of the fluorescence intensity of treated wells by that of the calculated average fluorescence intensity of replicate negative control wells containing cells with 0.1% DMSO only. Values and reported error bars represent the mean and standard error of the mean of three triplicate repeats for each concentration tested. IC50 values were calculated using GraphPad Prism 8 software.
# (§5) The potential of compound 37a, glucuronide-PHB-BL, as a prodrug was investigated. As discussed above, at physiological pH the compound has a relatively slow-release rate. Toxicity of Gluc-PHB-BL 37a was tested against a range of cell lines with and without added β-glucuronidase. Addition of the enzyme mimics conditions of the solid tumour environment.
# β-glucuronidase = target: T1, β-glucuronidase (Escherichia coli, UniProt P05804); experiment: Incubation with β-glucuronidase (sugar deprotection); type: biochemical, E. coli K-12; conditions: pH 7.4, 37° C.
# T1 construct: purchased Roche 03707580001
# Procedure: Glucuronide prodrug (37a, b, c, d) was dissolved in DMSO to a concentration of 10 mM. A 100 mM stock solution of warfarin in DMSO was also prepared. To obtain deprotected para-hydroxybenzyl ketol species, the glucuronide stock solution was dissolved in PBS with 16.7% DMF to a concentration of 1.7 mM. 15 μL of a stock solution of R-glucuronidase from E. coli K-12 (Roche #03707580001, 140 U/mL) was added to 900 μL of this stock and incubated for 20 min at 37° C. 15 μL of a 100 mM stock of warfarin internal standard in DMSO was added. Reactions were then set up immediately. For a reaction, 30 μL of the amino-benzyl ketol/standard stock was added to 195 μL of citrate-phosphate buffer at the specified pH. Test samples were incubated at 37° C. with shaking. At the recorded time points, 20 μL aliquots of the reactions were analysed by HPLC (254 nm, Agilent 1260 Infinity). HPLC conditions: column Agilent InfinityLab Poroshell 120 SB—C18 2.7 μm, 50×4.6 mm; solvent system A=H2O+0.1% TFA, B=acetonitrile+0.1% TFA; flow=1 mL/min. Gradient: t=0-1 min 0% B, t=1-2 min 0-30% B, t=2-17 min 30-40% B, t=17-17.1 min 40-100% B, t=17.1-18 min 100% B, t=18-23 min 0% B. Relative peak area represents raw peak area (mAU*s) normalized to raw peak area of the warfarin internal standard. Values recorded are averages of three independent reactions and error bars display standard error of the mean. […]
# range of cell lines = experiment: Toxicity of Gluc-PHB-BL against a range of cell lines with and without added β-glucuronidase; type: cell-based
# Procedure: as §3, §4, §5
# HEK-293T = experiment: Toxicity with/without β-glucuronidase, HEK-293T; type: cell-based
# Procedure: as §3, §4, §5
# [2] = test system: Aspc-1 pancreatic cancer cell line; experiment: CellTiter Glo viability assay, Aspc-1; type: cell-based
# Procedure: as §1, §2
# [3] = Glucuronide kinetics assay (release of β-lapachone after β-glucuronide deprotection); type: physicochemical; conditions: pH 7, 37° C., after β-glucuronide deprotection; first experiments
# Procedure: Glucuronide prodrug (37a, b, c, d) was dissolved in DMSO to a concentration of 10 mM. A 100 mM stock solution of warfarin in DMSO was also prepared. To obtain deprotected para-hydroxybenzyl ketol species, the glucuronide stock solution was dissolved in PBS with 16.7% DMF to a concentration of 1.7 mM. 15 μL of a stock solution of R-glucuronidase from E. coli K-12 (Roche #03707580001, 140 U/mL) was added to 900 μL of this stock and incubated for 20 min at 37° C. 15 μL of a 100 mM stock of warfarin internal standard in DMSO was added. Reactions were then set up immediately. For a reaction, 30 μL of the amino-benzyl ketol/standard stock was added to 195 μL of citrate-phosphate buffer at the specified pH. Test samples were incubated at 37° C. with shaking. At the recorded time points, 20 μL aliquots of the reactions were analysed by HPLC (254 nm, Agilent 1260 Infinity). HPLC conditions: column Agilent InfinityLab Poroshell 120 SB—C18 2.7 μm, 50×4.6 mm; solvent system A=H2O+0.1% TFA, B=acetonitrile+0.1% TFA; flow=1 mL/min. Gradient: t=0-1 min 0% B, t=1-2 min 0-30% B, t=2-17 min 30-40% B, t=17-17.1 min 40-100% B, t=17.1-18 min 100% B, t=18-23 min 0% B. Relative peak area represents raw peak area (mAU*s) normalized to raw peak area of the warfarin internal standard. Values recorded are averages of three independent reactions and error bars display standard error of the mean. Values were fitted to first-order kinetics using GraphPad Prism 9 software. A positive control experiment was performed under identical conditions with known substrate 4-nitrophenyl-β-D-glucuronide (Sigma Aldrich) to confirm enzyme activity.
# HeLa = experiment: Toxicity with/without β-glucuronidase, HeLa; type: cell-based
# Procedure: as §3, §4, §5
# MOLM-13 = experiment: Toxicity with/without β-glucuronidase, MOLM-13; type: cell-based
# Procedure: as §3, §4, §5
# [4] = Stability of glucuronide prodrug to incubation at pH 7.4 at 37° C.; type: physicochemical; conditions: pH 7.4, 37° C., 6 days; no β-lapachone observed
# Procedure: An experiment testing the stability of compound 37a to incubation at pH 7.4 at 37° C. was also performed.
# HL-60 = experiment: Toxicity with/without β-glucuronidase, HL-60; type: cell-based
# Procedure: as §3, §4, §5
# [5] = Homo sapiens, read-out: IC50 Gluc-PHB-BL 37a
# T1 sequence (P05804 whole entry): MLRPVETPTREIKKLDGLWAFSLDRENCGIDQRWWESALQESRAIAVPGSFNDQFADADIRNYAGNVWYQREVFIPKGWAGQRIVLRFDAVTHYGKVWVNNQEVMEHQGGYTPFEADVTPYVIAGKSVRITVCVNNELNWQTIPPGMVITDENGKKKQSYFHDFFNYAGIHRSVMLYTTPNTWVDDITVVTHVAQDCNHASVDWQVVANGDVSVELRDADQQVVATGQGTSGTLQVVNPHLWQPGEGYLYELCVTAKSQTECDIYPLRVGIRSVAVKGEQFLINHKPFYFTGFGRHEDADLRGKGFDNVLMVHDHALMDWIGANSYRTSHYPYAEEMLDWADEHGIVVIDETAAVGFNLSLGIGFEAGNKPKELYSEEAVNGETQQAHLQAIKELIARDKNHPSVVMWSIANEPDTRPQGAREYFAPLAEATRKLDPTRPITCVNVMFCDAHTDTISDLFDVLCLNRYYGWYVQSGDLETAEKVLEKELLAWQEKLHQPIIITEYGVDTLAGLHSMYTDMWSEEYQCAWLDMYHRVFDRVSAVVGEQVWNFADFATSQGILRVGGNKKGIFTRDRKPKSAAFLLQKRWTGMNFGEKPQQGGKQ
compound,measurement,setting,value
"CC1(C)CCC2=C(O1)c1ccccc1C(O)(Cc1ccc(O[C@@H]3O[C@H](C(=O)O)[C@@H](O)[C@H](O)[C@H]3O)cc1)C2=O (stereo partly drawn) [Compound 37a, (2S,3S,4S,5R,6S)-3,4,5-trihydroxy-6-(4-((6-hydroxy-2,2-dimethyl-5-oxo-3,4,5,6-tetrahydro-2H-benzo[h]chromen-6-yl)methyl)phenoxy)tetrahydro-2H-pyran-2-carboxylic acid]",IC50,"[1]; Homo sapiens, PANC-1, 48 h",10.5 µM
same,toxicity without the β-glucuronidase enzyme,"[1]; Panc-1, up to 100 μM",no toxicity
same,IC50,"SkBr-3; Homo sapiens, SK-BR-3, read-out: IC50 Gluc-PHB-BL 37a",24 µM
same,IC50 (37a)/ IC50 (1),SkBr-3; SkBr-3,8.73
same,sugar deprotection reaction,β-glucuronidase,rapid
same,toxicity without added β-glucuronidase,"range of cell lines; concentrations up to 100 μM, apart from HEK-293T",not seen
same,times less toxic than β-lapachone 1 (comparison of estimated IC50),"range of cell lines; treated with β-glucuronidase, 48 h",3.5-9.7 times
same,IC50 (37a)/ IC50 (1),HEK-293T,7.18
same,IC50,HEK-293T; [5],20.9 µM
same,toxicity without added β-glucuronidase,HEK-293T; up to 100 μM,low toxicity
same,toxicity without the β-glucuronidase enzyme,"[2]; Aspc-1, up to 100 μM",no toxicity
same,IC50,"[2]; Homo sapiens, ASPC1, 48 h",17.4 µM
same,"release rate of β-lapachone, kobs",[3],1.09e-06 s⁻¹
same,IC50 (37a)/ IC50 (1),HeLa,9.74
same,IC50,HeLa; [5],41.5 µM
same,IC50,"MOLM-13; Homo sapiens, MOLM-13, read-out: IC50 Gluc-PHB-BL 37a",78.6 µM
same,IC50 (37a)/ IC50 (1),MOLM-13; MOLM-13,6.50
same,stability to incubation,[4],completely stable
same,IC50 (37a)/ IC50 (1),HL-60; HL-60,3.51
same,IC50,"HL-60; Homo sapiens, HL-60, read-out: IC50 Gluc-PHB-BL 37a",15.2 µM
